For this test, the target named is T1, human FXR (NR1H4) (Homo sapiens, UniProt Q96RI1).
T1 construct: host or cells: CHO (Chinese hamster ovary) reporter cells
T1 sequence (Q96RI1 1-486): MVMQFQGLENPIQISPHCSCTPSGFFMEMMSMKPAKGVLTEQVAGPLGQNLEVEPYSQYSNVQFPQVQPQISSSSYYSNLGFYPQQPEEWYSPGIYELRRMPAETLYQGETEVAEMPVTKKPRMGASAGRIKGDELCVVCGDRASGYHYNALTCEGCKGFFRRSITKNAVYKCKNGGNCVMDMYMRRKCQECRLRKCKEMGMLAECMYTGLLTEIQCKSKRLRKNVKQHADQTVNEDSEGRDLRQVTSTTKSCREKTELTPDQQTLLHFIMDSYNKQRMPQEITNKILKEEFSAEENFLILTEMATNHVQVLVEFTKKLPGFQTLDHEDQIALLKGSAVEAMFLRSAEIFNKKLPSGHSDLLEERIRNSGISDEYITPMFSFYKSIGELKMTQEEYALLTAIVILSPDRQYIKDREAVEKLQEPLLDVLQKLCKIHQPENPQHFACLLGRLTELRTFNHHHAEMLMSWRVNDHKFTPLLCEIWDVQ
The test is described as follows: Human FXR (NR1H4) reporter assay (Gal4 promoter driven transactivation, luciferase). It is filed as cell-based. The text has this:
Human FXR (NR1H4) Assay Determination of a ligand mediated Gal4 promoter driven transactivation to quantify ligand binding mediated activation of FXR. FXR Reporter Assay kit purchased from Indigo Bioscience (Catalogue number: IB00601) to determine the potency and efficacy of compound developed by Enanta that can induce FXR activation. The principle application of this reporter assay system is to quantify functional activity of human FXR. The assay utilizes non-human mammalian cells, CHO (Chinese hamster ovary) cells engineered to express human NR1H4 protein (referred to as FXR). Reporter cells also incorporate the cDNA encoding beetle luciferase which catalyzes the substrates and yields photon emission. Luminescence intensity of the reaction is quantified using a plate-reading luminometer, Envision. […] Thus, quantifying changes in luciferase expression in the treated reporter cells provides a sensitive surrogate measure of the changes in FXR activity. […] Thirty minutes before intending to quantify FXR activity, remove Detection Substrate and Detection Buffer from the refrigerator and place them in a low-light area so that they may equilibrate to room temperature. […] Set the instrument (Envision) to perform a single 5 second “plate shake” prior to reading the first assay well. Read time may be 0.5 second (500 mSec) per well.
On the technique in general: In a reporter assay the amount or activity of a reporter protein is the signal.

Each structure is given as a SMILES string.

Usually EC50 stands for the concentration giving half of the maximal effect. For `CC[C@@H]1C2C[C@H](O)CCC2(C)[C@H]2CCC3(C)C([C@H](C)CCC(=O)NC(=N)Nc4ccccc4)CC[C@H]3[C@@H]2[C@@H]1O` (some centres unmarked) [Example 1], the EC50 was in the range of 100 to 1000 nM. Besides, the “Efficacy (%)” value (CHO reporter cells expressing human NR1H4, normalized to CDCA set as 100%) turned out to be 248%.

(Values after patent US10246483B2, “Bile acid analogs as FXR/TGR5 agonists and methods of use thereof” (ENANTA PHARMACEUTICALS, INC., priority 2015, dated 2019).)
